This note sets out measurements from ChEMBL document CHEMBL1641562, “Modifications of the C6-substituent of penicillin sulfones with the goal of improving inhibitor recognition and efficacy” (Bioorg Med Chem Lett, 2011).

One may read the IC50 as the concentration that inhibits the measured activity by half. A high value points to weaker potency in that assay.

Assay [1] in a line: Inhibition of beta-lactamase PDC-3.
Assay [2] in a line: Inhibition of beta-lactamase TEM-1.

Where only a bound is given, the exact number is not on record here.

With `CC1(C)[C@H](C(=O)O)N2C(=O)[C@@H](CC(=O)NO)[C@H]2S1(=O)=O`, the IC50 in assay [1] and in assay [2] was above 50 µM in each case.

As to `CC1(C)[C@H](C(=O)O)N2C(=O)[C@@H]([C@@H](O)CN)[C@H]2S1(=O)=O`, the half-maximal inhibitory concentration (IC50) in assay [1] and in assay [2] was 1.2 µM in each case. In assay [1], `CC1(C)[C@H](C(=O)O)N2C(=O)C[C@H]2S1(=O)=O` [SULBACTAM] gave an IC50 of 4.3 µM. In other words, the single-digit micromolar range. As for `Cc1onc(-c2ccccc2)c1C(=O)N[C@@H]1C(=O)N2[C@@H](C(=O)O)C(C)(C)S(=O)(=O)[C@H]12`, the IC50 in assay [2] is above 50 µM.

With `CC1(C)[C@H](C(=O)O)N2C(=O)[C@@H](NS(=O)(=O)C(F)(F)F)[C@H]2S1(=O)=O`, the IC50 in assay [2] is above 50 µM.

In the case of `CC1(C)[C@H](C(=O)O)N2C(=O)[C@@H](CN)[C@H]2S1(=O)=O`, the IC50 was above 50 µM in assay [1] and 0.45 µM in assay [2]. With `CC1(C)[C@H](C(=O)O)N2C(=O)[C@@H](NC(=O)Cc3ccccc3)[C@H]2S1(=O)=O`, the IC50 in assay [1] and in assay [2] was above 50 µM throughout.

In turn, `CC1(C)[C@H](C(=O)O)N2C(=O)[C@@H](NCC(=O)O)[C@H]2S1(=O)=O` showed an IC50 in assay [2] above 50 µM. Turning to `CC1(C)[C@H](C(=O)O)N2C(=O)[C@@H](CCCO)[C@H]2S1(=O)=O`, the half-inhibitory concentration (IC50) in assay [2] is above 50 µM. `COc1cccc(OC)c1C(=O)N[C@@H]1C(=O)N2[C@@H](C(=O)O)C(C)(C)S(=O)(=O)[C@H]12` came in with an IC50 in assay [2] above 50 µM. On to `CC1(C)[C@H](C(=O)O)N2C(=O)[C@@H](CNC(=O)Cc3ccccc3)[C@H]2S1(=O)=O`, for which the half-inhibitory concentration (IC50) in assay [2] is above 50 µM. In turn, `CC1(C)[C@H](C(=O)O)N2C(=O)[C@@H](CCO)[C@H]2S1(=O)=O` came in with an IC50 in assay [2] above 50 µM. On the same count and under the same terms, in the case of `CC(C)(C)C(=O)NC[C@@H]1C(=O)N2[C@@H](C(=O)O)C(C)(C)S(=O)(=O)[C@H]12` it was above 50 µM; in that of `CC1(C)[C@H](C(=O)O)N2C(=O)[C@@H](CNS(=O)(=O)C(F)(F)F)[C@H]2S1(=O)=O`, 6.1 µM. Same read-out and setting: in the case of `CC1(C)[C@H](C(=O)O)N2C(=O)[C@@H]([C@@H](O)C(=O)N3CCCC3)[C@H]2S1(=O)=O` it was 0.18 µM. Take `C=CC[C@@H]1C(=O)N2[C@@H](C(=O)OC(c3ccccc3)c3ccccc3)C(C)(C)S(=O)(=O)[C@H]12`: the IC50 in assay [1] came out at 1.2 µM; in assay [2] it was 35 µM. `CC1(C)[C@H](C(=O)O)N2C(=O)[C@@H](N)[C@H]2S1(=O)=O`: the IC50 was above 50 µM in assay [1] and 8.4 µM in assay [2]. With `C=CCOC(=O)NC[C@@H]1C(=O)N2[C@@H](C(=O)O)C(C)(C)S(=O)(=O)[C@H]12`, the half-inhibitory concentration (IC50) in assay [2] is above 50 µM. Take `CC1(C)[C@H](C(=O)O)N2C(=O)[C@@H](CC(O)O)[C@H]2S1(=O)=O`: the IC50 in assay [1] and in assay [2] was above 50 µM in each case. In turn, `CC1(C)[C@H](C(=O)O)N2C(=O)[C@@H](CC(=O)O)[C@H]2S1(=O)=O` gave a half-inhibitory concentration (IC50) in assay [2] above 50 µM.
